# Data from patent US20120202877A1 (priority 2009, published 2012).
# Tested on: A/Paris/1170/2007 (H1N1, Y274)
# Test: microbe, parasite or virus in culture
# Type: cell-based
# Conditions: Influenza A virus, H1N1, 72 h, read-out: EC50, 50% reduction of the average plaque diameter
row,Compound,EC50 [µM]
1,"C=CCC1=C(C(=O)O)O[C@@H]([C@H](O)[C@H](O)CO)[C@H](NC(C)=O)[C@H]1O [Compound 7, 5-Acetamido-2,6-anhydro-3,5-dideoxy-3-C-(prop-2′-enyl)-D-glycero-D-galacto-non-2-en-onic acid]",2200
2,"CC(=O)N[C@H]1[C@H]([C@H](O)[C@H](O)CO)OC(C(=O)O)=C[C@@H]1O [Neu5Ac2en, reference compound]",8
3,CC(=O)NC1C(O)C(CC=Cc2ccc(C)cc2)=C(C(=O)O)OC1C(O)C(O)CO (stereo not drawn) [Compound 9d],40
